Assay results published in patent publication US11179306B2, “Use of salicylic acid derivatives as prodesquamating active agent” (L'OREAL, priority 2013, dated 2021).

Columns and labels:
[1] = system: stratum corneum of viable human skin; assay: Desquamating activity: cohesion of the stratum corneum on excised human skin maintained under survival conditions; type: cell-based; conditions: for Score (mean ± sd, n = 6), decrease in the cohesion of the stratum corneum / Appearance of the stratum corneum compared with control skin: 5% by weight in ethanol; for Score (mean ± sd, n = 6), decrease in the cohesion of the stratum corneum: 15 μl per 1 cm^2, applied at D0 and D1, histology at D2, score 0 (absence of modification) to 4 (very large decrease with exfoliation), 6 donors; for Appearance of the stratum corneum compared with control skin: morphology comparison; for Decrease in the cohesion of the stratum corneum with respect to the control skin (desquamating effect): at 5%, paired Student test, p<0.05
Protocol: The study is targeted at detecting the desquamating potential of the active agents in simplex solution by observation of the cohesion of the stratum corneum.
The keratolytic effect on excised skin maintained under survival conditions at 5% by weight in ethanol was evaluated. The study was carried out on viable human skin resulting from abdominal or breast reduction plastic surgery (6 donors).
(§1) The protocol consists in applying the test solutions to skin samples maintained under survival conditions. The products tested are applied in a proportion of 15 μl per 1 cm^2 sample and are not rinsed off. Application is carried out twice, at D0 and then, 24 hours later, at D1. The morphology of the stratum corneum is analysed 48 hours after the first application, at D2, on a biopsy.
The solutions applied are the following: • compound A of Example 1, at 5% by weight in ethanol, and • compound B of Example 2, at 5% by weight in ethanol.
By way of comparison, no solution is applied to some samples, referred to as controls.
The histological analysis of the horny layer is carried out on a skin section after staining with hemalaun-eosin (magnification 400).
6 samples were used for each of the tests (control, compound A and compound B). A paired Student test (p<0.05) was carried out in order to evaluate the significance of the difference with respect to the control.

[2] = system: epidermis of viable human skin; assay: Tolerance of the skin: morphology of the epidermis of treated excised human skin; type: cell-based; conditions: 5% by weight in ethanol, compared with control skin
Protocol: as §1
In order to validate the desquamating properties of the compounds A and B and to evaluate the tolerance of the skin to these treatments, the morphology of a control skin was in addition compared with the morphology of the skin samples treated with A and with B present in a content of 5% by weight in ethanol, according to the protocol described above.

O=C(O)c1c(O)cccc1CCCCCCCCO [Compound A]
Score (mean ± sd, n = 6), decrease in the cohesion of the stratum corneum [1]: 1.85 ± 0.4 | Appearance of the stratum corneum compared with control skin [1]: decrease in the cohesion of the stratum corneum | Decrease in the cohesion of the stratum corneum with respect to the control skin (desquamating effect) [1]: statistically significant | Morphology of the epidermis (tolerance of the skin) [2]: preservation of the morphology of the epidermis

O=C(O)CCCCCCCc1cccc(O)c1C(=O)O [Compound B]
Score (mean ± sd, n = 6), decrease in the cohesion of the stratum corneum [1]: 1.75 ± 0.2 | Appearance of the stratum corneum compared with control skin [1]: decrease in the cohesion of the stratum corneum | Decrease in the cohesion of the stratum corneum with respect to the control skin (desquamating effect) [1]: statistically significant | Morphology of the epidermis (tolerance of the skin) [2]: preservation of the morphology of the epidermis
